{
  "source": "patent US20080274112A1",
  "about": "“Nogo Receptor Antagonists” (priority 2003, published 2008)",
  "key": {"[1]": {"tested_on": "7E11", "test": "7E11 binding to digest peptides of NgR1 (MS analysis)", "design": "species or system murine", "conditions": "trypsin or Asp-N digest peptides", "procedure": "The 7E11 binding site was further analyzed by testing trypsic peptide digests of sNgR310. […] 7E11 bound only a single tryptic digest peptide, providing additional evidence that […] binds to a single epitope on NgR1. Subsequent mass spectroscopy (MS) and sequence analyses identified the bound peptide to be […] (SEQ ID NO: 26).\nThe LDLSDNAQLRVVDPTT peptide (SEQ ID NO: 1) was subjected to further mapping analysis. The peptide was digested with trypsin, which yielded two major fragments, LDLSDNAQLR (SEQ ID NO: 27) and VVDPTT (SEQ ID NO: 28), and the ability of 7E11 to bind them was tested. […] Within this peptide fraction, detailed MS analysis identified several scrambled peptides that also bound 7E11, including peptides with deamination at Asn115 and Gln117, addition of Alanine at 112 or 113, or addition of Serine at 114 (Table 3).\nThe LDLSDNAQLRVVDPTT peptide was also digested with the endoprotease Asp-N and 7E11 binding was tested. Endoprotease Asp-N cleaved the peptide into 3 peptide fragments, L, DLS and DNAQLRVVDPTT (SEQ ID NO: 36). Of these products, 7E11 bound the DNAQLRVVDPTT peptide. Taken together, the trypsin and Asp-N cleavage data further localize the 7E11 binding epitope to the sequence shared between them, DNAQLR (SEQ ID NO: 37)."}, "[2]": {"tested_on": "DRG neurons", "test": "Neurite outgrowth assay, myelin mixed with test protein (Example 10)", "type": "cell-based", "conditions": "P3-4 rat DRG; spotted mixed with CNS myelin", "procedure": "Lab-Tek® culture slides (4 wells) were coated with 0.1 mg/ml poly-D-lysine (Sigma®). CNS myelin alone or mixed with sNogoR310, sNogoR310-Fc fusion protein, mAb 5B10 or control PBS were separately spotted as 3 μl drops. Fluorescent microspheres (Polysciences) were added to the myelin/PBS to allow later identification of the drops (Grandpre et al, Nature 403, 2000). Lab-Tek® slides were then rinsed and coated with 10 μg/ml laminin (Gibco™).\nDorsal root ganglions (DRG's) from P3-4 Sprague Dawley rat pups were dissociated with 1 mg/ml collagenase type 1 (Worthington), triturated with fire-polished Pasteur pipettes pre-plated to enrich in neuronal cells and finally plated at 23,000 cells/well on the pre-coated Labtek culture slides. The culture medium was F12 containing 5% heat inactivated donor horse serum, 5% heat inactivated fetal bovine serum and 50 ng/ml MNGF and incubated at 37° C. and 5% CO2 for 6 hours.\nSlides were fixed for 20 minutes with 4% paraformaldehyde containing 20% sucrose and stained for the neuronal marker anti beta-III-tubulin (Covance TUJ1) diluted 1:500. As secondary antibody anti-mouse Alexa Fluor® 594 (Molecular Probes) was diluted 1:300 and slides were coverslipped with Gel/Mount™ (Biømeda™). 5× digital images were acquired with OpenLab™ software and analyzed by using the MetaMorph® software for quantification of neurite outgrowth."}, "[3]": {"molecular_target": "T1, Nogo66 + sNogoR344-Fc (Rattus norvegicus, UniProt Q99M75, A303T/C287S/C43R/E284G/T53A)", "T1 construct": "amino acid residues 26-344 of rat Nogo receptor-1; made in house", "T1 sequence (Q99M75 26-344 C43R/T53A/E284G/C287S/A303T)": "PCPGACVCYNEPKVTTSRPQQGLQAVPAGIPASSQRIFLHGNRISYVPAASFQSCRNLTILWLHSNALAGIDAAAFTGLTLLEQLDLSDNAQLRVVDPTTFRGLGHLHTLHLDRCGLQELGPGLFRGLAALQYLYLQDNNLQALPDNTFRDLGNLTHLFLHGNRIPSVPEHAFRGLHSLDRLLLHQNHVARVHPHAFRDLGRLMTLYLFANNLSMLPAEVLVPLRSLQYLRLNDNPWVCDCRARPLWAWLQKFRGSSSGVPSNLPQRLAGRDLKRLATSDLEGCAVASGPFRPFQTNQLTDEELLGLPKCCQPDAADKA", "test": "mAb/Fab inhibition of Nogo66 binding to sNogoR344-Fc (ELISA)", "procedure": "(§1) 0.5 μg of a soluble Nogo receptor-1 fusion protein comprising amino acid residues 26-344 of rat Nogo receptor-1 and the hinge and Fc region of the rat IgG1 molecule (sNogoR344-Fc) produced as described below was immobilized on 250 μg of protein-A- or wheatgerm agglutinin-conjugated SPA beads (Amersham Pharmacia Biotech) for 2 hours at 25° C. SPA beads coupled with Fc-sNogoR-1, anti-Nogo receptor-1 mAb and 1 μl ^125I-Nogo66 (Amersham, 2000 Ci/mmol, 1 nM) in 50 μl of the HEPES-buffered incubation medium (10 mM HEPES, pH 7.4, 0.1% bovine serum albumin, 0.1% ovalbumin, 2 mM MgCl2, 2 mM CaCl2 and protease inhibitors) was added to each sample well. After 16 hours, radioactivity was measured in quadruplicate samples using a TopCount® (Packard). IC50 values were calculated from a curve-fit analysis (FIG. 3) (PRISM, GraphPad Software, NJ). In some experiments, we also used AP-ligand conjugates (e.g. AP-Nogo66) and detected binding by monitoring alkaline phosphatase activity. We also assayed the ability of the mAbs to block binding of the ligands MAG-Fc and AP-OM-gp to Nogo receptor-1.\n(§2) The calculated IC50 for Nogo66 for 7E11 and 1H2 were 400 nM and 60 nM, respectively. The data from ELISAs monitoring mAb-mediated inhibition of binding of the three ligands to Nogo receptor-1 are summarized in Table 6.\n(§3) We also performed ELISA binding assays using the Fab-phage 14D5."}, "[4]": {"molecular_target": "polypeptide p-617 (SEQ ID NO: 1) (Rattus norvegicus, UniProt Q99M75)", "test": "Specificity ELISA on polypeptide p-617", "type": "binding", "from_the_text": "To determine the specificity of the monoclonal and Fab-phage antibodies produced in Examples 1 and 2, we performed an ELISA using a panel of Nogo receptor-1 polypeptides. The panel consisted of sNogoR310-Fc (a fusion protein comprising amino acids 26-310 of rat Nogo receptor-1 and a rat Fc fragment), sNogoR344-Fc (see supra), polypeptide p-617 (SEQ ID NO: 1), polypeptide p-618 (a 19-amino acid polypeptide from the LRR7 region of rat Nogo receptor-1; FIG. 2; SEQ ID NO: 11) and polypeptides p-4 and p-5 (polypeptides from the LRR5 and LRRCT regions of Nogo receptor-1, respectively). Ovalbumin and BSA were used as controls."}, "[5]": {"molecular_target": "T2, OM-gp + sNogoR344-Fc (Rattus norvegicus, UniProt Q99M75, A303T/C287S/C43R/E284G/T53A)", "T2 construct": "amino acid residues 26-344 of rat Nogo receptor-1; made in house", "T2 sequence (Q99M75 26-344 C43R/T53A/E284G/C287S/A303T)": "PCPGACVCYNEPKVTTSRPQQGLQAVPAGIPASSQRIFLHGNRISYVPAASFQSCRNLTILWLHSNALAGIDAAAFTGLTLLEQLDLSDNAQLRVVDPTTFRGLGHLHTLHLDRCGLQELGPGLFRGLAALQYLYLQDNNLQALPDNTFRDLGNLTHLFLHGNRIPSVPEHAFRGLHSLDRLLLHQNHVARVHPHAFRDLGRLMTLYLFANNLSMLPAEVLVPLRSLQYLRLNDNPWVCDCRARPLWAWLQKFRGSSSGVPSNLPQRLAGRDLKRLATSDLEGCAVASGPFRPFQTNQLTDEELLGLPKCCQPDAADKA", "test": "mAb/Fab inhibition of OM-gp binding to sNogoR344-Fc (ELISA)", "procedure": "as §1, §2, §3"}, "[6]": {"molecular_target": "T3, MAG + sNogoR344-Fc (Rattus norvegicus, UniProt Q99M75, A303T/C287S/C43R/E284G/T53A)", "T3 construct": "amino acid residues 26-344 of rat Nogo receptor-1; made in house", "T3 sequence (Q99M75 26-344 C43R/T53A/E284G/C287S/A303T)": "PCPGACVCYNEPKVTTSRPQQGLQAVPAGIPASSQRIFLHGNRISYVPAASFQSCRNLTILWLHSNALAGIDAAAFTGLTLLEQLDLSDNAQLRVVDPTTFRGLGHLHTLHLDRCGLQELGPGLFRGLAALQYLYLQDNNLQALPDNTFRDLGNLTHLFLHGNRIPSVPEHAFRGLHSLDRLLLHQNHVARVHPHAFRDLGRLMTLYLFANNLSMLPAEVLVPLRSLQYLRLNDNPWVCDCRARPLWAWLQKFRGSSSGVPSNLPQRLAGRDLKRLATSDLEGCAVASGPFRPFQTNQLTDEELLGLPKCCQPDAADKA", "test": "mAb/Fab inhibition of MAG binding to sNogoR344-Fc (ELISA)", "procedure": "as §1, §2, §3"}, "[7]": {"tested_on": "7E11", "test": "7E11 binding to immobilized point-mutant peptides (EC50)", "design": "species or system murine", "procedure": "To verify these contact points, several peptides containing point mutations within the LDLSDNAQLR sequence (SEQ ID NO: 27) were generated and tested for 7E11 binding. The peptides were immobilized on a MaxiSorp™ plate (Nunc®) and serial dilutions of […] were applied. […] The most significant change in EC50 was observed when Arg119 was mutated to Alanine."}, "[8]": {"tested_on": "Nogo receptor-1", "test": "Blocking of ligand binding to Nogo receptor-1 by soluble receptors"}},
  "data": [
    {"molecule": "DNAQLRVVDPTT", "values": [
      {"measurement": "binding by 7E11", "setting": "[1]", "value": "bound"}
    ]},
    {"molecule": "AAAFGLTLLEQLDLSDNAQLR (AAAFTGLTLLEQLDLSDNAQLR) [tryptic digest peptide of sNgR310]", "values": [
      {"measurement": "binding by 7E11", "setting": "[1]", "value": "bound"}
    ]},
    {"molecule": "5B10: murine monoclonal anti-Nogo receptor-1 antibody, IgG1 kappa, ATCC PTA-4588; immunogen rat Nogo receptor-1 residues 110-125", "values": [
      {"measurement": "protection from myelin-mediated inhibition of neurite outgrowth", "setting": "[2]", "value": "protected"},
      {"measurement": "inhibition of binding of Nogo66 to sNogoR344-Fc", "setting": "[3]", "value": "inhibited binding"},
      {"measurement": "binding to polypeptide p-617", "setting": "[4]", "value": "specifically bound"},
      {"measurement": "inhibition of binding of OM-gp to sNogoR344-Fc", "setting": "[5]", "value": "inhibited binding"},
      {"measurement": "inhibition of binding of MAG to sNogoR344-Fc", "setting": "[6]", "value": "inhibited binding"}
    ]},
    {"molecule": "LDLSDNAQLHVVDPTT [R119H]", "values": [
      {"measurement": "increase of EC50 versus original peptide", "setting": "[7]", "value": 25, "unit": "fold"}
    ]},
    {"molecule": "LDLSDNAALRVVDPTT [Q117A]", "values": [
      {"measurement": "increase of EC50 versus original peptide", "setting": "[7]", "value": 30, "unit": "fold"}
    ]},
    {"molecule": "LDLSDNAQLR", "values": [
      {"measurement": "binding by 7E11", "setting": "[1]", "value": "bound"}
    ]},
    {"molecule": "sNogoR344: soluble Nogo receptor-1 polypeptide, residues 26-344 or 27-344 (protein, listed as Rattus sp.) PCPGACVCYNEPKVTTSRPQQGLQAVPAGIPASSQRIFLHGNRISYVPAASFQSCRNLTILWLHSNALAGIDAAAFTGLTLLEQLDLSDNAQLRVVDPTTFRGLGHLHTLHLDRCGLQELGPGLFRGLAALQYLYLQDNNLQALPDNTFRDLGNLTHLFLHGNRIPSVPEHAFRGLHSLDRLLLHQNHVARVHPHAFRDLGRLMTLYLFANNLSMLPAEVLVPLRSLQYLRLNDNPWVCDCRARPLWAWLQKFRGSSSGVPSNLPQRLAGRDLKRLATSDLEGCAVASGPFRPFQTNQLTDEELLGLPKCCQPDAADKA", "values": [
      {"measurement": "blocking of binding of NogoA, NogoB, NogoC, MAG and OM-gp to Nogo receptor-1", "setting": "[8]", "value": "block the binding"}
    ]}
  ]
}
